{"source": "paper PMC9596378", "about": "“Discovery and molecular basis of subtype-selective cyclophilin inhibitors” (Nature Chemical Biology, 2022)", "test_in_all_cases": "Chymotrypsin coupled prolyl-isomerase assay;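 on PPIL1 prolyl-isomerase raw dose-response reading (Fig. 6c): Per-well observed rate constant from one-phase association fit in s−1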;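 on PPWD1 prolyl-isomerase raw dose-response reading (Fig. 6c): Per-well observed rate constant from one-phase association fit in s−1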", "assay_type_in_all_cases": "biochemical", "key": {"CypH": {"molecular_target": "T1, CypH (Homo sapiens, UniProt O43447)", "T1 construct": "PPIH (UniProtKB Entry O43447: residues 1–177); His6 with TEV site (2BT vector leader) (N); made in house; host or cells: E. coli BL21(DE3)", "T1 sequence (O43447 whole entry, the tested form may be a part)": "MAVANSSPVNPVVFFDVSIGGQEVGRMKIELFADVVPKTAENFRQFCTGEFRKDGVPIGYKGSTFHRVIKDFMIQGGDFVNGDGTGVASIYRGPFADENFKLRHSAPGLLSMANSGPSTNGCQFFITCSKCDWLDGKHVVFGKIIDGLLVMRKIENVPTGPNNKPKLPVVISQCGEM", "method_in_brief": "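5 nM Cyp, HEPES pH 7.3/NaCl/Triton buffer, 2–3 °C; cpd 5 min, chymotrypsin 25 µM 5 min, then Suc-AAPF-AMC 5 µM in LiCl/TFE. Kinetic fluorescence 330 s. Per-well rate constants, normalized, IC50 from nonlinear fit.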"}, "PPIL1": {"molecular_target": "T2, PPIL1 (Homo sapiens, UniProt Q9Y3C6)", "T2 construct": "PPIL1 (UniProtKB Entry Q9Y3C6: residues 1–166); made in house; host or cells: E. coli BL21(DE3)", "T2 sequence (Q9Y3C6 1-166)": "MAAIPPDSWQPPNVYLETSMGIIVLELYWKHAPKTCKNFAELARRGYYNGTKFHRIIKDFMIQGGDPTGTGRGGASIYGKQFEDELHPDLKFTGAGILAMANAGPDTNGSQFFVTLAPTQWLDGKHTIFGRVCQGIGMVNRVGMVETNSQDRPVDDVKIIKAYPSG"}, "PPWD1": {"molecular_target": "T3, PPWD1 (Homo sapiens, UniProt Q96BP3)", "T3 construct": "PPWD1 (UniProtKB Entry Q96BP3: residues 473–646); host or cells: E. coli BL21(DE3)", "T3 sequence (Q96BP3 473-646)": "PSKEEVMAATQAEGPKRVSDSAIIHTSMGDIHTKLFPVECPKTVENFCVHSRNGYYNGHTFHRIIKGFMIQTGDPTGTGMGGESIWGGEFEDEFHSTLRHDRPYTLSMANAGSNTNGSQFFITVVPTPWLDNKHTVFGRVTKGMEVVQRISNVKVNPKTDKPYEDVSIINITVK", "description": "Five microliters of compound pre-dissolved in 5% DMSO/assay buffer was then added to appropriate wells and incubated at 2–3 °C for 5 min. Five microliters of 0.5 mM α-chymotrypsin from bovine pancreas (Type II, lyophilized powder, Millipore-Sigma) in 20% 1 mM HCl/Assay Buffer was then added to each well and incubated at 2–3 °C for 5 min. The plate was then quickly transferred to a FLIPR Tetra High-Throughput Cellular Screening System (Molecular Devices). Using the internal liquid handling system of the FLIPR, 1 µL 0.5 mM Suc-AAPF-AMC (Chymotrypsin Substrate II, Millipore-Sigma) dissolved in 0.55 M LiCl/2,2,2-trifluoroethanol was added to each well, which was then mixed for 5 s, followed by immediate fluorescence measurements every 1 s for 330 s using a 360–380 nm excitation LED module and a 400–460 nm emission filter. […] Raw fluorescence data was analyzed by non-linear regression analysis with Prism v.9 by fitting one-phase association curves to each well. Analyses were halted after the calculated maximum fluorescent value owing to observed fluorescent bleaching during the sustained fluorescent plateau. Rate constants calculated for each well (s^−1) were then normalized to substrate only (no prolyl-isomerase) and enzyme + substrate only controls."}}, "note": "Several values for one entry are separate records, joined by “and”; a condition that tells them apart may be missing. Equal entries are not always repeated. Where two headings read alike, the source gives them in different places."}
{"smiles": "NC(=O)C1CCNC(=O)C=CC(=O)N2CCCC(Cc3ccccc3)(C2)C(=O)NC(Cc2ccc(-c3ccc(C=O)c(B(O)O)c3)cc2)C(=O)NCc2ccccc2CC(=O)N1", "note": "(centres unmarked) [Compound C3A]", "values": [{"measurement": "CypH prolyl-isomerase raw dose-response reading (Fig. 6c)", "setting": "CypH; Dose 0.00457247 µM", "result": "0.05086 and 0.04496"}, {"measurement": "CypH prolyl-isomerase raw dose-response reading (Fig. 6c)", "setting": "CypH; Dose 0.0137174 µM", "result": "0.05594 and 0.04525 and 0.04484"}, {"measurement": "CypH prolyl-isomerase raw dose-response reading (Fig. 6c)", "setting": "CypH; Dose 0.0411523 µM", "result": "0.05731 and 0.04453 and 0.05359"}, {"measurement": "CypH prolyl-isomerase raw dose-response reading (Fig. 6c)", "setting": "CypH; Dose 0.123457 µM", "result": "0.05145 and 0.04681 and 0.07329"}, {"measurement": "CypH prolyl-isomerase raw dose-response reading (Fig. 6c)", "setting": "CypH; Dose 0.37037 µM", "result": "0.05882 and 0.04794 and 0.07376"}, {"measurement": "CypH prolyl-isomerase raw dose-response reading (Fig. 6c)", "setting": "CypH; Dose 1.11111 µM", "result": "0.06718 and 0.05255 and 0.05895"}, {"measurement": "CypH prolyl-isomerase raw dose-response reading (Fig. 6c)", "setting": "CypH; Dose 3.33333 µM", "result": "0.06287 and 0.05436 and 0.04825"}, {"measurement": "CypH prolyl-isomerase raw dose-response reading (Fig. 6c)", "setting": "CypH; Dose 10 µM", "result": "0.04443 and 0.06084 and 0.04295"}, {"measurement": "IC50", "setting": "CypH; Independent replicate 1, read-out: IC50 CypH", "result": "> 10", "unit": "µM"}, {"measurement": "IC50", "setting": "CypH; Independent replicate 2, read-out: IC50 CypH", "result": "> 50", "unit": "µM"}, {"measurement": "IC50", "setting": "CypH; Independent replicate 3, read-out: IC50 CypH", "result": "~40", "unit": "µM"}, {"measurement": "IC50", "setting": "CypH; Independent replicate 4, read-out: IC50 CypH", "result": "> 50", "unit": "µM"}, {"measurement": "IC50", "setting": "CypH; prolyl-isomerase inhibition, 5 nM cyclophilin, read-out: IC50 CypH", "result": "> 50", "unit": "µM"}, {"measurement": "IC50", "setting": "CypH; wild-type CypH, read-out: Wild-Type Cyclophilin Prolyl Isomerase Inhibition IC50 Values, CypH", "result": "> 50", "unit": "µM"}, {"measurement": "PPIL1 prolyl-isomerase raw dose-response reading (Fig. 6c)", "setting": "PPIL1; Dose 0.00114312 µM", "result": "0.05471 and 0.0599 and 0.05622"}, {"measurement": "PPIL1 prolyl-isomerase raw dose-response reading (Fig. 6c)", "setting": "PPIL1; Dose 0.00342936 µM", "result": "0.05168 and 0.05762 and 0.07551"}, {"measurement": "PPIL1 prolyl-isomerase raw dose-response reading (Fig. 6c)", "setting": "PPIL1; Dose 0.00457247 µM", "result": "0.05739 and 0.05515 and 0.06362 and 0.05346 and 0.05755 and 0.06002 and 0.05207 and 0.04334"}, {"measurement": "PPIL1 prolyl-isomerase raw dose-response reading (Fig. 6c)", "setting": "PPIL1; Dose 0.0102881 µM", "result": "0.04812 and 0.0449 and 0.05106"}, {"measurement": "PPIL1 prolyl-isomerase raw dose-response reading (Fig. 6c)", "setting": "PPIL1; Dose 0.0308642 µM", "result": "0.06685 and 0.05223 and 0.05525"}, {"measurement": "PPIL1 prolyl-isomerase raw dose-response reading (Fig. 6c)", "setting": "PPIL1; Dose 0.0925926 µM", "result": "0.05203 and 0.04221 and 0.05411"}, {"measurement": "PPIL1 prolyl-isomerase raw dose-response reading (Fig. 6c)", "setting": "PPIL1; Dose 0.277778 µM", "result": "0.04184 and 0.0372 and 0.04929"}, {"measurement": "PPIL1 prolyl-isomerase raw dose-response reading (Fig. 6c)", "setting": "PPIL1; Dose 0.833333 µM", "result": "0.02447 and 0.02506 and 0.03512"}, {"measurement": "PPIL1 prolyl-isomerase raw dose-response reading (Fig. 6c)", "setting": "PPIL1; Dose 2.5 µM", "result": "0.0232 and 0.01951 and 0.02784"}, {"measurement": "IC50", "setting": "PPIL1; Independent replicate 1, read-out: IC50 PPIL1", "result": "0.4 ± 0.2", "unit": "µM"}, {"measurement": "IC50", "setting": "PPIL1; Independent replicate 2, read-out: IC50 PPIL1", "result": "0.5 ± 0.2", "unit": "µM"}, {"measurement": "IC50", "setting": "PPIL1; Independent replicate 3, read-out: IC50 PPIL1", "result": "0.25 ± 0.06", "unit": "µM"}, {"measurement": "IC50", "setting": "PPIL1; Independent replicate 4, read-out: IC50 PPIL1", "result": "0.36 ± 0.08", "unit": "µM"}, {"measurement": "IC50", "setting": "PPIL1; prolyl-isomerase inhibition, 5 nM cyclophilin, read-out: IC50 PPIL1", "result": "0.4 ± 0.1", "unit": "µM"}, {"measurement": "IC50", "setting": "PPIL1; wild-type PPIL1, read-out: Wild-Type Cyclophilin Prolyl Isomerase Inhibition IC50 Values, PPIL1", "result": 0.4, "unit": "µM"}, {"measurement": "PPWD1 prolyl-isomerase raw dose-response reading (Fig. 6c)", "setting": "PPWD1; Dose 0.00457247 µM", "result": "0.0469 and 0.04534 and 0.05629"}, {"measurement": "PPWD1 prolyl-isomerase raw dose-response reading (Fig. 6c)", "setting": "PPWD1; Dose 0.0137174 µM", "result": "0.04565 and 0.04397 and 0.06065"}, {"measurement": "PPWD1 prolyl-isomerase raw dose-response reading (Fig. 6c)", "setting": "PPWD1; Dose 0.0411523 µM", "result": "0.05156 and 0.0487 and 0.05013"}, {"measurement": "PPWD1 prolyl-isomerase raw dose-response reading (Fig. 6c)", "setting": "PPWD1; Dose 0.123457 µM", "result": "0.04255 and 0.04648 and 0.048"}, {"measurement": "PPWD1 prolyl-isomerase raw dose-response reading (Fig. 6c)", "setting": "PPWD1; Dose 0.37037 µM", "result": "0.04707 and 0.04395 and 0.05999"}, {"measurement": "PPWD1 prolyl-isomerase raw dose-response reading (Fig. 6c)", "setting": "PPWD1; Dose 1.11111 µM", "result": "0.04661 and 0.0432 and 0.04546"}, {"measurement": "PPWD1 prolyl-isomerase raw dose-response reading (Fig. 6c)", "setting": "PPWD1; Dose 3.33333 µM", "result": "0.03786 and 0.03919 and 0.04546"}, {"measurement": "PPWD1 prolyl-isomerase raw dose-response reading (Fig. 6c)", "setting": "PPWD1; Dose 10 µM", "result": "0.02858 and 0.03234 and 0.0406"}, {"measurement": "PPWD1 prolyl-isomerase raw dose-response reading (Fig. 6c)", "setting": "PPWD1; Dose 16.6667 µM", "result": "0.02581 and 0.0305 and 0.02503 and 0.03058 and 0.01822 and 0.02069 and 0.01922 and 0.02384"}, {"measurement": "IC50", "setting": "PPWD1; Independent replicate 1, read-out: IC50 PPWD1", "result": "> 10", "unit": "µM"}, {"measurement": "IC50", "setting": "PPWD1; Independent replicate 2, read-out: IC50 PPWD1", "result": "8 ± 4", "unit": "µM"}, {"measurement": "IC50", "setting": "PPWD1; Independent replicate 3, read-out: IC50 PPWD1", "result": "6 ± 2", "unit": "µM"}, {"measurement": "IC50", "setting": "PPWD1; Independent replicate 4, read-out: IC50 PPWD1", "result": "9 ± 3", "unit": "µM"}, {"measurement": "IC50", "setting": "PPWD1; prolyl-isomerase inhibition, 5 nM cyclophilin, read-out: IC50 PPWD1", "result": "8 ± 2", "unit": "µM"}, {"measurement": "IC50", "setting": "PPWD1; wild-type PPWD1, read-out: Wild-Type Cyclophilin Prolyl Isomerase Inhibition IC50 Values, PPWD1", "result": 8, "unit": "µM"}]}
